Data taken from patent publication EP4644375A1, “SUBSTITUTED HYDROQUINOLINES FOR THE TREATMENT OF GLIOBLASTOMA MULTIFORME” (Molius Saglik Teknolojileri Anonim Sirketi, priority 2024, dated 2025).
Entries after “also recorded” stand apart in the source; their conditions may differ.

Legend:
[1] = In vivo GBM rat model: haematology; conditions: GBM rats, 30 mg/kg oral, 5 days, blood at necropsy
Method: The parameters that were analysed can be seen in Table 11.

[2] = system: GBM xenograft rat model; experiment: In vivo GBM rat model: MRI analysis of tumor volumes; conditions: GBM rats, 30 mg/kg oral, 5 days; for antitumor activities, order: ranking; for tumor size: MRI 14th vs 28th day
Method: (§1) An in Vivo study was performed to assess the therapeutic potential of TR-G002, TR-G045, TR-G053, TR-G066, TR-G071 and TR-G091 in the GBM xenograft rat model when administered orally by gavage for five consecutive days. 152 female rats of the Sprague Dawley strain were allocated to the study. Six groups of sixteen females were given dose of 30 mg/kg of the respective target compounds. […] The study design can be seen in Fig. 11 and Table 10.
(§2) Female Sprague Dawley rats (age: 6-8 weeks; weight: 255-310 g; ATADEM, Erzurum, Turkey) were utilized in the study. Rats underwent anaesthesia with 5% isoflurane, maintained at 2% isoflurane (1 L/min oxygen), and were positioned in a stereotactic frame for cell implantation (Stoelting Co., IL). […] A burr hole was drilled 1-mm anterior and 3-mm lateral to the right bregma. A microsyringe (Hamilton 1700 series) containing 5×10^4 U87-MG cells suspended in 5 µL of medium at 37 °C was advanced to a depth of 4 mm into the brain. The cells were injected at a rate of 3 µL/ min. Bone wax was used to fill the burr hole to prevent cell suspension reflux. The incision was sutured, and 1 mL of Meloxicam (5 mg/mL; Metacam, Boehringer Ingelheim Vetmedica, Ingelheim, Germany) was administered via a subcutaneous injection.
(§3) Fourteen days after inoculation, tumor development in rats was visualized and confirmed through magnetic resonance imaging (MRI). Rats confirmed to have developed tumors were then distributed into six different groups for treatment. […] 9 days after the final treatment dose, the rats underwent another MRI scan and blood and brain samples were taken under anaesthesia.
The anaesthetic was administered via an intraperitoneal route on animals fixed in the supine position with parallel hind limbs. MRI was performed using a 3 Tesla clinical scanner (Magnetom Skyra; Siemens Healthineers, Erlangen, Germany). Rats were placed in the prone position. T2-SPACE (sampling perfection with application-optimized contrast using different flip angle Evolution) sequence was obtained to view the brain in coronal and transverse planes. (TR: 6000 ms, TE: 100 ms, voxel size: 0.5 × 0.5 × 1 mm, 34 slices, slice thickness: 2 mm, slice spacing: 0.6 mm). The volume measurements of brain tumors were performed manually. One radiologist calculated the tumour volume - manually measuring tumour length (L), width (W), and height (H) - and then calculated the tumour volume using the formula 0.5236 × L × W × H (Stuppner S et al., 2020).

[3] = system: GBM xenograft rat model; experiment: In vivo GBM rat model: survival; conditions: GBM rats, 30 mg/kg oral gavage once daily for 5 days, 14th to 28th day, compared to untreated GBM rats
Method: as §1, §2, §3

[4] = system: Ki67; experiment: In vivo GBM rat model: immunohistochemical examination; conditions: tumor cells, brain tissues, GBM rats, 30 mg/kg oral, 5 days
From the text: (§4) For immunohistochemical examinations, primary antibodies (Ki67 Cat no: ab15580 dilution ratio: 1/100; CMPK2 Cat no: PA5-34461, dilution ratio: 1/100, GFAP Cat no: ab6842 dilution ratio: 1/100) were used. 3-3' Diaminobenzidine (DAB) was used as chromogen. Mayer's hematoxylin was used for counterstaining. Sections were examined under a light microscope (Zeiss AXIO, Germany).
(§5) Individual body weights were manually calculated. Group mean body weights; group mean body weight changes and organ weights were also manually calculated without statistical analysis. To determine the density of positive staining from immunohistochemical and immunofluorescence staining images, five randomly selected areas were evaluated using ZEISS Zen Imaging Software. Data were statistically defined as mean and standard deviation (mean ± SD) for the percentage of the area. One-way ANOVA followed by the Tukey test was performed to compare immunoreactive cells and immune-positive stained areas with healthy controls. GraphPad Prism software was used for analysis.

[5] = system: GFAP; experiment: as above; conditions: brain tissues, GBM rats, 30 mg/kg oral, 5 days
From the text: as §4, §5

[6] = system: CMPK2; experiment: as above; conditions: tumor cells, brain tissues, GBM rats, 30 mg/kg oral, 5 days
From the text: as §4, §5

[7] = system: NOP10; experiment: In vivo GBM rat model: double immunofluorescence examination; conditions: neurons, brain tissues, GBM rats, 30 mg/kg oral, 5 days
Method: (§6) In immunofluorescence examinations, primary antibody (NOP10 Cat no: ab134902 dilution ratio: 1/100) was applied to tissues and incubated according to the instructions. A fluorescent secondary antibody (FITC Cat No: ab6785 dilution Ratio: 1/1000 UK) was then applied and incubated in the dark for 45 minutes. Afterward, a second primary antibody (H2A.X Cat no: sc-517336 dilution ratio: 1/100) was applied and incubated according to the instructions. A different fluorescent secondary antibody (Texas Red Cat No: ab6719 dilution Ratio: 1/1000 UK) was applied and incubated in the dark for 45 minutes. Finally, DAPI (Cat no: D1306 dilution ratio: 1/200 UK) was applied to the sections for 5 minutes in the dark, followed by covering the tissues with coverslips. The stained tissues were examined under a fluorescence attachment-equipped microscope (Zeiss AXIO, Germany).
as §5

[8] = system: H2A.X; experiment: as above; conditions: neurons, brain tissues, GBM rats, 30 mg/kg oral, 5 days
Method: as §6, §5

[9] = Peripheral blood micronucleus assay; format: in vivo, Rat; conditions: for MN frequency: GBM rats, 30 mg/kg oral, 5 days, 1000 cells per animal evaluated
Method: Blood smears were made on clean microscope slides, allowed to air-dry, treated with methanol for fixation, and then stained with Giemsa (10% in 0.1 mM of sodium phosphate buffer, pH 6.8) for 10 min. After washing with PBS, the slides were examined under a light microscope. The frequencies of micronuclei (MN) were calculated by evaluating 1000 cells per animal.

| Structure (SMILES) | HCT [1] | HGB [1] | MCH [1] | MCHC [1] | MCV [1] | PLT [1] | RBC [1] | WBC [1] | antitumor activities, order [2] | survival [3] | expression of Ki67 [4] | GFAP expression in astrocytes around the tumor [5] | expression of CMPK2 [6] | expressions of Nopio [7] | expressions of H2AX [8] | MN frequency [9] | MN frequency (comparison) ([9]; treated GBM rats) | tumor size [2] | survival ([3]; 30 mg/kg) | tumor size ([2]; 30 mg/kg) |
| --- | --- | --- | --- | --- | --- | --- | --- | --- | --- | --- | --- | --- | --- | --- | --- | --- | --- | --- | --- | --- |
| C=Cc1ccc(COc2ccc3c(c2)CCC(=O)N3)cc1 [TR-G053, 6-((4-vinylbenzyl)oxy)-3,4-dihydroquinolin-2(1H)-one] | 48.77% | 14.67 g/dL | 17.83 pg | 30.07 g/dL | 59.33 fL | 823.33 10^9 /L | 8.23 10^12/L | 3.40 10^9/L | TR-G066> TR-G045> TR-G002>TMZ> TR-G091> TR-G053> TR-G071 | prolonged survival | severe | mild | severe | severe | severe | 9.67 ± 1.21 | lowest MN frequency |  |  |  |
| O=C1CCc2cc(OS(=O)(=O)c3cccc4ccccc34)ccc2N1 [TR-G045, 2-oxo-1,2,3,4-tetrahydroquinolin-6-yl naphthalene-1-sulfonate] | 47.24% | 14.12 g/dL | 18.46 pg | 30.54 g/dL | 60.48 fL | 845.60 10^9 /L | 8.34 10^12/L | 4.32 10^9/L | TR-G066> TR-G045> TR-G002>TMZ> TR-G091> TR-G053> TR-G071 |  | moderate | moderate | moderate | moderate | moderate | 12.05 ± 1.78 |  | decrease in tumor size | significantly improved survival; also recorded: prolonged survival |  |
| COc1cc(NC(=O)COc2ccc3c(c2)CCC(=O)N3)cc(OC)c1 [TR-G091, N-(3,5-dimethoxyphenyl)-2-((2-oxo-1,2,3,4-tetrahydroquinolin-6-yl)oxy)acetamide] | 43.95% | 13.80 g/dL | 17.90 pg | 31.40 g/dL | 56.95 fL | 744.50 10^9 /L | 7.73 10^12/L | 6.56 10^9/L | TR-G066> TR-G045> TR-G002>TMZ> TR-G091> TR-G053> TR-G071 | prolonged survival | moderate | Moderate | moderate | moderate | moderate | 11.65 ± 2.30 |  |  |  |  |
| CC(C)CCOc1ccc2c(c1)CCC(=O)N2 [TR-G002, 6-(isopentyloxy)-3,4-dihydroquinolin-2(1H)-one] | 48.53% | 14.88 g/dL | 18.43 pg | 30.71 g/dL | 59.99 fL | 805.75 10^9 /L | 8.11 10^12/L | 3.65 10^9/L | TR-G066> TR-G045> TR-G002>TMZ> TR-G091> TR-G053> TR-G071 |  | mild | severe | mild | mild | mild | 11.62 ± 2.34 |  | small increase in tumor size | significantly improved survival; also recorded: prolonged survival |  |
| C=CCOC(=O)COc1ccc2c(c1)CCC(=O)N2 [TR-G071, Allyl 2-((2-oxo-1,2,3,4-tetrahydroquinolin-6-yl)oxy)acetate] | 48.15% | 14.15 g/dL | 17.65 pg | 31.20 g/dL | 58.65 fL | 823.00 10^9 /L | 8.56 10^12/L | 3.82 10^9/L | TR-G066> TR-G045> TR-G002>TMZ> TR-G091> TR-G053> TR-G071 | prolonged survival | moderate | moderate | moderate | moderate | moderate | 12.43 ± 2.09 |  |  |  |  |
| O=C(COc1ccc2c(c1)CCC(=O)N2)N/N=C/c1cnc(-c2ccc(Cl)cc2)nc1 [TR-G066, (E)-N'-((2-(4-chlorophenyl)pyrimidin-5-yl)methylene)-2-((2-oxo-1,2,3,4-tetrahydroquinolin-6-yl)oxy)acetohydrazide] | 46.30% | 15.00 g/dL | 18.51 pg | 31.11 g/dL | 59.60 fL | 799.14 10^9 /L | 8.12 10^12/L | 4.57 10^9/L | TR-G066> TR-G045> TR-G002>TMZ> TR-G091> TR-G053> TR-G071 |  | very mild | very severe | very mild | very mild | very mild | 10.91 ± 1.89 |  |  | significantly improved survival; also recorded: highest survival; also recorded: prolonged survival | decrease in tumor size; also recorded: reduced the tumor size |
